Data from patent publication US5593984A, “Cephalosporin derivatives” (Yuhan Corporation, priority 1992, dated 1997).
≈ marks a conversion by molar mass, not a printed value.

Key:
Assay type in all cases: cell-based
[1] = tested on: B. subtilis ATCC 6633; test: MIC by agar dilution, B. subtilis ATCC 6633; details: Bacillus subtilis, ATCC6633, 17 h; B. subtilis ATCC 6633; agar dilution, Mueller-Hinton agar; read-out: Minimal Inhibitory Concentration (MIC)
Description: (§1) These MIC values were determined by agar dilution method: that is, two-fold dilutions of each of the test compounds were made and dispersed in a Mueller-Hinton agar medium; standard test strain which had the 10^6 CFU (Colony Forming Unit) per ml was inoculated on the medium with microplanter (Toyo, Japan), and incubated at 35°-37° C. for 17±1 hours. The structures of Ceftazidime (CAZ) and Cefotaxime (CTX) which are used as control compounds are as follows: [drawing 12]

[2] = tested on: Staph. aureus ATCC 6538P; test: MIC by agar dilution, Staph. aureus ATCC 6538P; details: Staphylococcus aureus, ATCC6538P, 17 h; Staph. aureus ATCC 6538P; agar dilution, Mueller-Hinton agar; read-out: Minimal Inhibitory Concentration (MIC)
Description: as §1

[3] = tested on: Staph. aureus Smith; test: MIC by agar dilution, Staph. aureus Smith; details: Staphylococcus aureus, 17 h, Mueller-Hinton agar, read-out: Minimal Inhibitory Concentration (MIC)
Description: as §1

[4] = tested on: Staph. aureus C-57; test: MIC by agar dilution, Staph. aureus C-57; details: Staphylococcus aureus, C57, 17 h, Mueller-Hinton agar, read-out: Minimal Inhibitory Concentration (MIC)
Description: as §1

[5] = tested on: Staph. aureus C-5113; test: MIC by agar dilution, Staph. aureus C-5113; details: Staphylococcus aureus, C5113, 17 h, Mueller-Hinton agar, read-out: Minimal Inhibitory Concentration (MIC)
Description: as §1

[6] = tested on: Staph. aureus C-5216; test: MIC by agar dilution, Staph. aureus C-5216; details: Staphylococcus aureus, C5216, 17 h, Mueller-Hinton agar, read-out: Minimal Inhibitory Concentration (MIC)
Description: as §1

[7] = tested on: S. epidermidis ATCC 12228; test: MIC by agar dilution, S. epidermidis ATCC 12228; details: Staphylococcus epidermidis, ATCC12228, 17 h; S. epidermidis ATCC 12228; agar dilution, Mueller-Hinton agar; read-out: Minimal Inhibitory Concentration (MIC)
Description: as §1

[8] = tested on: Ent. aerogenes IFO 12979; test: MIC by agar dilution, Ent. aerogenes IFO 12979; details: Klebsiella aerogenes, IFO12979, 17 h, Mueller-Hinton agar, read-out: Minimal Inhibitory Concentration (MIC)
Description: as §1

[9] = tested on: Ent. cloacae IFO 13535; test: MIC by agar dilution, Ent. cloacae IFO 13535; details: Enterobacter cloacae, IFO13535, 17 h; Ent. cloacae IFO 13535; agar dilution, Mueller-Hinton agar; read-out: Minimal Inhibitory Concentration (MIC)
Description: as §1

[10] = tested on: E. coli NIHJ JC-2; test: MIC by agar dilution, E. coli NIHJ JC-2; details: Escherichia coli, NIHJJC2, 17 h; E. coli NIHJ JC-2; agar dilution, Mueller-Hinton agar; read-out: Minimal Inhibitory Concentration (MIC)
Description: as §1

[11] = tested on: E. coli No. 29; test: MIC by agar dilution, E. coli No. 29; details: Escherichia coli, 17 h; E. coli No. 29; agar dilution, Mueller-Hinton agar; read-out: Minimal Inhibitory Concentration (MIC)
Description: as §1

[12] = tested on: E. coli DY-1; test: MIC by agar dilution, E. coli DY-1; details: Escherichia coli, DY1, 17 h; E. coli DY-1; agar dilution, Mueller-Hinton agar; read-out: Minimal Inhibitory Concentration (MIC)
Description: as §1

[13] = tested on: K. pneumoniae NCTC 9632; test: MIC by agar dilution, K. pneumoniae NCTC 9632; details: Klebsiella pneumoniae, NCTC9632, 17 h; K. pneumoniae NCTC 9632; agar dilution, Mueller-Hinton agar; read-out: Minimal Inhibitory Concentration (MIC)
Description: as §1

[14] = tested on: M. morganii DY-1; test: MIC by agar dilution, M. morganii DY-1; details: Morganella morganii, DY1, 17 h; M. morganii DY-1; agar dilution, Mueller-Hinton agar; read-out: Minimal Inhibitory Concentration (MIC)
Description: as §1

[15] = tested on: Ps. aeruginosa ATCC 10145; test: MIC by agar dilution, Ps. aeruginosa ATCC 10145; details: Pseudomonas aeruginosa, ATCC10145, 17 h, Mueller-Hinton agar, read-out: Minimal Inhibitory Concentration (MIC)
Description: as §1

[16] = tested on: Ps. aeruginosa NCTC 10490; test: MIC by agar dilution, Ps. aeruginosa NCTC 10490; details: Pseudomonas aeruginosa, NCTC10490, 17 h, Mueller-Hinton agar, read-out: Minimal Inhibitory Concentration (MIC)
Description: as §1

[17] = tested on: Ps. aeruginosa DY-2; test: MIC by agar dilution, Ps. aeruginosa DY-2; details: Pseudomonas aeruginosa, DY2, 17 h; Ps. aeruginosa DY-2; agar dilution, Mueller-Hinton agar; read-out: Minimal Inhibitory Concentration (MIC)
Description: as §1

[18] = tested on: P. vulgaris NCTC 8313; test: MIC by agar dilution, P. vulgaris NCTC 8313; details: Proteus vulgaris, NCTC8313, 17 h; P. vulgaris NCTC 8313; agar dilution, Mueller-Hinton agar; read-out: Minimal Inhibitory Concentration (MIC)
Description: as §1

[19] = tested on: Prov. stuartii IFO 12930; test: MIC by agar dilution, Prov. stuartii IFO 12930; details: Providencia stuartii, IFO12930, 17 h, Mueller-Hinton agar, read-out: Minimal Inhibitory Concentration (MIC)
Description: as §1

[20] = tested on: Ser. marcescens IFO 12648; test: MIC by agar dilution, Ser. marcescens IFO 12648; details: Serratia marcescens, IFO12648, 17 h; Ser. marcescens IFO 12648; agar dilution, Mueller-Hinton agar; read-out: Minimal Inhibitory Concentration (MIC)
Description: as §1

SMILES	MIC [1]	MIC [2]	MIC [3]	MIC [4]	MIC [5]	MIC [6]	MIC [7]	MIC [8]	MIC [9]	MIC [10]	MIC [11]	MIC [12]	MIC [13]	MIC [14]	MIC [15]	MIC [16]	MIC [17]	MIC [18]	MIC [19]	MIC [20]
CON=C(C(=O)NC1C(=O)N2C(C(=O)[O-])=C(C[n+]3ccn4c(C(=O)O)ccc4c3)CSC12)c1csc(N)n1 (stereo not drawn) [Ex. 17, 7-β-[(Z)-2-(2-aminothiazol-4-yl)-2-methoxyiminoacetamido]-3-(6-carboxypyrrolo[1,2-a]pyrazinium-2-yl)methyl-3-cephem-4-carboxylate]	0.1 µg/mL (≈ 0.179 µM)	0.39 µg/mL (≈ 0.699 µM)	0.78 µg/mL (≈ 1.4 µM)	25 µg/mL (≈ 44.8 µM)	1.56 µg/mL (≈ 2.8 µM)	1.56 µg/mL (≈ 2.8 µM)	0.1 µg/mL (≈ 0.179 µM)	0.025 µg/mL (≈ 0.0448 µM)	0.39 µg/mL (≈ 0.699 µM)	0.025 µg/mL (≈ 0.0448 µM)	0.012 µg/mL (≈ 0.0215 µM)	0.025 µg/mL (≈ 0.0448 µM)	0.025 µg/mL (≈ 0.0448 µM)	0.025 µg/mL (≈ 0.0448 µM)	1.56 µg/mL (≈ 2.8 µM)	0.2 µg/mL (≈ 0.359 µM)	3.13 µg/mL (≈ 5.61 µM)	0.012 µg/mL (≈ 0.0215 µM)	≤ 0.006 µg/mL	0.05 µg/mL (≈ 0.0897 µM)
CON=C(C(=O)NC1C(=O)N2C(C(=O)[O-])=C(C[n+]3ccn4c(C(C)=O)ccc4c3)CSC12)c1csc(N)n1 (stereo not drawn) [Ex. 18, 7-β-[(Z)-2-(2-aminothiazol-4-yl)-2-methoxyiminoacetamido]-3-(6-acetylpyrrolo[1,2-a]pyrazinium-2-yl)methyl-3-cephem-4-carboxylate]	0.2 µg/mL (≈ 0.36 µM)	0.2 µg/mL (≈ 0.36 µM)	0.78 µg/mL (≈ 1.4 µM)	25 µg/mL (≈ 45 µM)	0.78 µg/mL (≈ 1.4 µM)	1.56 µg/mL (≈ 2.81 µM)	0.05 µg/mL (≈ 0.09 µM)	0.012 µg/mL (≈ 0.0216 µM)	0.1 µg/mL (≈ 0.18 µM)	0.012 µg/mL (≈ 0.0216 µM)	0.025 µg/mL (≈ 0.045 µM)	0.012 µg/mL (≈ 0.0216 µM)	0.025 µg/mL (≈ 0.045 µM)	0.025 µg/mL (≈ 0.045 µM)	1.56 µg/mL (≈ 2.81 µM)	0.2 µg/mL (≈ 0.36 µM)	6.25 µg/mL (≈ 11.2 µM)	0.012 µg/mL (≈ 0.0216 µM)	0.012 µg/mL (≈ 0.0216 µM)	0.012 µg/mL (≈ 0.0216 µM)
CCON=C(C(=O)NC1C(=O)N2C(C(=O)[O-])=C(C[n+]3ccn4c(C(C)=O)ccc4c3)CSC12)c1csc(N)n1 (stereo not drawn) [Ex. 19, 7-β-[(Z)-2-(2-aminothiazol-4-yl)-2-ethoxyiminoacetamido]-3-(6-acetylpyrrolo[1,2-a]pyrazinium-2-yl)methyl-3-cephem-4-carboxylate]	0.1 µg/mL (≈ 0.176 µM)	0.2 µg/mL (≈ 0.351 µM)	0.78 µg/mL (≈ 1.37 µM)	50 µg/mL (≈ 87.8 µM)	1.56 µg/mL (≈ 2.74 µM)	1.56 µg/mL (≈ 2.74 µM)	0.05 µg/mL (≈ 0.0878 µM)	0.012 µg/mL (≈ 0.0211 µM)	0.2 µg/mL (≈ 0.351 µM)	0.05 µg/mL (≈ 0.0878 µM)	0.05 µg/mL (≈ 0.0878 µM)	0.025 µg/mL (≈ 0.0439 µM)	0.05 µg/mL (≈ 0.0878 µM)	0.025 µg/mL (≈ 0.0439 µM)	3.13 µg/mL (≈ 5.49 µM)	0.1 µg/mL (≈ 0.176 µM)	6.25 µg/mL (≈ 11 µM)	≤ 0.006 µg/mL	0.05 µg/mL (≈ 0.0878 µM)	0.1 µg/mL (≈ 0.176 µM)
CON=C(C(=O)NC1C(=O)N2C(C(=O)[O-])=C(C[n+]3ccn4c(C(C)O)ccc4c3)CSC12)c1csc(N)n1 (stereo not drawn) [Ex. 20, 7-β-[(Z)-2-(2-aminothiazol-4-yl)-2-methoxyiminoacetamido]-3-[6-(1-hydroxyethyl)pyrrolo[1,2-a]pyrazinium-2-yl]methyl-3-cephem-4-carboxylate]	0.1 µg/mL (≈ 0.179 µM)	0.2 µg/mL (≈ 0.359 µM)	0.78 µg/mL (≈ 1.4 µM)	50 µg/mL (≈ 89.7 µM)	1.56 µg/mL (≈ 2.8 µM)	1.56 µg/mL (≈ 2.8 µM)	0.2 µg/mL (≈ 0.359 µM)	≤ 0.006 µg/mL	0.1 µg/mL (≈ 0.179 µM)	0.025 µg/mL (≈ 0.0448 µM)	≤ 0.006 µg/mL	≤ 0.006 µg/mL	0.012 µg/mL (≈ 0.0215 µM)	0.012 µg/mL (≈ 0.0215 µM)	0.78 µg/mL (≈ 1.4 µM)	0.2 µg/mL (≈ 0.359 µM)	3.13 µg/mL (≈ 5.61 µM)	0.012 µg/mL (≈ 0.0215 µM)	≤ 0.006 µg/mL	0.025 µg/mL (≈ 0.0448 µM)
